Series [1] relates to adenosine A1 receptor in the granular juxtaglomerular cells of the kidney. As to conditions: Federation Proceedings 44:879 & 1643, 1985; cited from earlier work.
For series [2], the system named is plasma renin activity (PRA). Kind of series: Change in plasma renin activity in the bilateral renal artery ligated rat. In kind it is in vivo, Sprague-Dawley rats. As to conditions: 1 mg/kg I.V.; for Prevention of PRA increase (in words): 30 and 60 minutes. The procedure:
Adenosine Al receptor stimulation will inhibit the release of renin from the kidney. A stimulus for the release of renin is renal ischemia. The ability of the compounds of the present invention to prevent an increase in PRA following renal ischemia was tested in rats with both renal arteries ligated. Sprague-Dawley rats were anesthetized with ether and the renal arteries were ligated. Three to five hours after anesthesia, arterial blood was sampled and compounds I and II were administered in polyethylene glycol at 1 mg/kg I.V. At 30 and 60 minutes after administration, arterial blood was sampled for PRA measurement by the method of Sealy, J. E. et al., Cardiovasc. Med. 2:1079, 1977.

The test system of series [3] is mice. Put plainly: Ataxia on the rotating rod in mice. In kind it is in vivo. As to conditions: for Percent ataxic, 0.5 hour / Percent ataxic, 3 hour: 54 ± 12 mg/kg ip (pooled 32, 56, 75 mg/kg). The procedure: (§1) Adenosine analogs tend to produce sedation and central nervous system depression which have prevented their therapeutic utility. The compounds of the invention, at doses which lower arterial pressure in the SHR, show no evidence of CNS depression. The ataxia produced by compounds of the present invention was measured in mice by injecting the compounds IP at doses of 32, 56, or 75 mg/kg in an aqueous suspension, n=7 per dose. The mice had previously been trained to remain on a rotating rod. After dosing, the percent of mice unable to remain on the rotating rod was determined. […] The mice were also observed at various time intervals for behavioral signs of toxicity.

Series [4] deals with mice. Put plainly: Behavioral toxicity in mice after 75 mg/kg IP. In kind it is in vivo. Also on record: key to Motor depression / Ptosis / Respiratory depression / Flaccidity / Loss of righting reflex: +: toxic symptom observed. Here is the method:
as §1

Series [5] is described as follows: Solubility in MeOH. The series is classed as physicochemical. As to conditions: S isomer vs R isomer.
Series [6] has as its system spontaneously hypertensive rats (SHR). Kind of series: Effects on mean arterial pressure and heart rate in conscious spontaneously hypertensive rats (i.v. or intragastric). The series is classed as in vivo, rat. The procedure:
The effects of compounds I and II were tested intravenously or intragastrically in conscious spontaneously hypertensive rats (SHR). The rats were anesthetized with ether and the left carotid artery and right jugular vein were cannulated with polyethylene tubing. The rats were allowed three to five hours recovery from anesthesia for the I.V. studies and 12 to 18 hours for the oral studies. Mean arterial pressure (MAP, in mm/Hg) and heart rate (HR, beats/min.) were measured from the artery; intravenous administration of compounds was performed by injection into the vein. Oral administration was performed by gastric intubation. Compounds were dissolved in DMSO for I.V. studies and injected in volumes of 100 μ1/kg or less (N=5 per pound). Doses were 3 to 1,000 μg/kg. Compounds were dissolved in polyethylene glycol for oral administration and injected in volumes of 1 ml/kg at a dose of 20 mg/kg/day for three days (N=3 to 6 per compound).
The resting MAP and HR for the SHR ranged between 160-200 mm Hg and 330/350 b/min., respectively.

The mark [7] stands for this setting: 20 mg/kg intragastric, day 2 of oral administration.

These results are taken from US5032584A, “S-diastereomer of an n^6 -((2-hydroxypropyl)aryl)adenosine and its medicinal uses” (G. D. Searle & Co., priority 1988, dated 1991).

Entries after “also recorded” stand apart in the source; their conditions may differ.

On to `OC[C@H]1O[C@@H](n2cnc3c(NCC(O)COc4cccc5ccccc45)ncnc32)[C@H](O)[C@@H]1O` (mixture of isomers) [Compound I, N(6)-[2-hydroxy-3-(1-naphthyloxy)propyl]-adenosine], for which the “Binding to adenosine A1 receptor and effect on renin release, blood pressure, heart rate (in words)” value in series [1] was “binds to the adenosine Al receptor in the granular juxtaglomerular cells of the kidney to inhibit release of renin into the plasma, ultimately resulting in a reduction in circulating angiotensin II, thus reducing arterial blood pressure and heart rate in hypertensive models”. In series [2], the “Prevention of PRA increase (in words)” value was “prevented to the same extent”. In series [3], the “Percent ataxic, 0.5 hour” value amounted to 33 ± 10% and the “Percent ataxic, 3 hour” value is reported as 95 ± 5%. In series [4] (75 mg/kg IP, 18-20 h), the Flaccidity result was “+”; the “Flaccidity, incidence (footnote *)” value was 2/7; the Motor depression entry is listed as “+”; the Ptosis entry is given as “+”. Moreover, the Respiratory depression result in series [4] (75 mg/kg IP, 18-20 h) was “+”. Besides, in series [4] (75 mg/kg IP, 0.5 h), the Motor depression result was “+”, the Ptosis result was “+” and the Respiratory depression result is listed as “+”. Moreover, in series [4] (75 mg/kg IP, 3 h), the “Behavioral toxicity (in words)” value was “flaccidity and loss of righting reflex”; the Flaccidity result is reported as “+”; the “Loss of righting reflex” value is “+”; the Motor depression result was “+”. In series [4] (75 mg/kg IP, 3 h), the Ptosis result is “+” and the Respiratory depression result was “+”.
`OC[C@H]1O[C@@H](n2cnc3c(NC[C@H](O)COc4cccc5ccccc45)ncnc32)[C@H](O)[C@@H]1O` [Compound II, N^6-[2S-hydroxy-3-(1naphthalenyloxy)propyl]-adenosine]: the “Solubility in MeOH (in words)” value in series [5] was “less soluble in MeOH”. Besides, in series [6] (setting [7]), the “Maximum decrease at 20 mg/kg ig, HR” value turned out to be 202 ± 24 b/min and the “Maximum decrease at 20 mg/kg ig, MAP” value is recorded as 62 ± 7 mmHg. For the same molecule, the ED (HR decrease by 100 b/min) in series [6] (Rattus norvegicus, iv, i.v. in DMSO, read-out: IV dose to decrease HR by 100 b/min) stood at 0.036 ± 0.0012 mg/kg. In series [6] (Rattus norvegicus, iv, i.v. in DMSO, read-out: IV dose to decrease MAP by 40 mmHg), the ED (MAP decrease by 40 mmHg) is 0.047 ± 0.0012 mg/kg. Moreover, in series [2], the “Prevention of PRA increase (in words)” value is “prevented to the same extent”. The “Change in PRA, 30 minutes” value in series [2] (30 min after dosing) is reported as -11.7 ± 3.5 ngAI/ml/hr. The “Change in PRA, 60 minutes” value in series [2] (60 min after dosing) is given as -13.8 ± 4.9 ngAI/ml/hr. In series [3], the “Percent ataxic, 0.5 hour” value is recorded as 14 ± 8% and the “Percent ataxic, 3 hour” value worked out at 48 ± 21%. The “Central nervous system toxicity (in words)” value in series [3] (compared to compound I / racemic mixture) was “less CNS toxic than compound I, especially with regard to ataxia; also recorded: less central nervous system toxicity than the racemic mixture”. In series [3] (mice, ip, compared to compound I), the “Ataxia / motor toxicity (in words)” value is given as “less ataxia at 0.5 or 3 hours as compared to compound I; also recorded: less motor toxicity than compound I”. Further, in series [4] (75 mg/kg IP, 18-20 h), the Flaccidity entry was “+”, the Motor depression entry was “+” and the Ptosis entry was “+”. In series [4] (75 mg/kg IP, 0.5 h), the Motor depression result is recorded as “+” and the Ptosis result is reported as “+”. For the same molecule, in series [4] (75 mg/kg IP, 3 h), the Motor depression result was “+” and the Ptosis entry is “+”. In series [4] (75 mg/kg IP, 24 h), the Motor depression result is reported as “+”; the “Motor depression, incidence” value was 5/7; the Ptosis result is listed as “+”; the “Ptosis, incidence” value is given as 5/7. For the same molecule, the “Respiratory depression, incidence” value in series [4] (75 mg/kg IP, 24 h) was 5/7. The Respiratory depression entry in series [4] (mouse, in vivo) was “+”.
Regarding `OC[C@H]1O[C@@H](n2cnc3c(NC[C@@H](O)COc4cccc5ccccc45)ncnc32)[C@H](O)[C@@H]1O` [R isomer], the “Solubility in MeOH (in words)” value in series [5] is given as “more soluble in MeOH”.
